Source: patent US8691799B2, “Materials and methods for treatment of cancer and identification of anti-cancer compounds” (priority 2001, dated 2014)

What was measured:
[1] = tested on: SRE-dependent pRLSRE renilla luciferase reporter; assay: SRE-dependent luciferase reporter assay in v-Src/NIH 3T3 fibroblasts; assay type: cell-based, murine; details: 10 μM, 24-48 hr
Description: (§1) DNA Binding and Transcription. The STAT3 reporter, pLucTKS3, driving expression of firefly luciferase has been previously described (Turkson, J. et al. Mol. Cell Biol., 1999, 19:7519-7528). The pLucTKS3 plasmid harbors seven copies of a sequence corresponding to the STAT3-specific binding site in the promoter of the human C-reactive protein gene (Zhang, D. et al. J. Biol. Chem., 1996, 271:9503-9509). The STAT3-independent plasmid, pRLSRE, contains two copies of the serum response element (SRE) from the c-fos promoter (Yamauchi, K. et al. J. Biol. Chem., 1993, 268:14597-14600), subcloned into renilla luciferase reporter, pRL-null (Promega Corporation, Madison, Wis.).
(§2) Transfection and Generation of Stable Clones. […]
(§3) Preparation of Cytosolic Extracts. […] Cells were resuspended in 0.4 ml of low-salt HEPES buffer (10 mM HEPES, pH 7.8, 10 mM KCl, 0.1 mM EGTA, 0.1 mM EDTA, 1 mM PMSF, and 1 mM DTT) for 15 min, lysed by the addition of 20 μl of 10% NP-40, and centrifuged (10,000×g, 30 sec, 4° C.) to obtain the cytosolic supernatant, which was used for luciferase assays (Promega Corporation) measured with a luminometer.

[2] = Tolerability observations in treated mice; assay type: in vivo
Description: Antitumor Activity in the Nude Mouse Tumor Xenograft Model. Nude mice and C57 BL-6 black mice (National Cancer Institute, Bethesda, Md.) were maintained in accordance with the Institutional Animal Care and Use Committee (IACUC) procedures and guidelines. v-Src- and oncogenic H-Ras-transformed NIH 3T3, A549, MDA-MB-468 and Calu-1 cells were harvested, resuspended in PBS and injected s.c. into the right and left flank (10×10^6 cells per flank) of 8 week old female nude mice as reported previously (Sun, J. et al. Cancer Res., 1999, 59:4919-4926). Similarly, murine B16-F10 Melanoma cells were injected s.c. into the right and left flank (10^6 cells per flank) of C57 black mice. When tumors reached about 150 mm^3, animals were randomized (five animals per group; two tumors per animal) and dosed i.p. with 0.2 ml once daily. […] The tumor volumes were determined by measuring the length (l) and the width (w) and calculating the volume (V=1w^2/2) as described previously (Sun, J. et al. Cancer Res., 1999, 59:4919-4926). Statistical significance between control and treated animals were evaluated by using Student's t-test. For the mouse survival experiments, C57 BL-6 black mice were implanted s.c. with B16-F10 cells (10^5 to 10^6 cells per flank). On day 5 after implantation the mice were randomized (6 animals per group) and treated with either vehicle or JSI-124 (1 mg/Kg/day) for 25 days. Percent surviving mice was determined by monitoring the death of mice until all mice died. Two experiments of 12 animals each (6 control and 6 treated with JSI-124) were carried out. For statistical analysis: for each of the two experiments, mice receiving JSI-124 were compared to those receiving vehicle control with respect to survival using the permutation log rank test as implemented in the statistical software package, ProcStatXact (p-values are two sided and exact).

[3] = personal communication; cited from earlier work
[4] = tested on: Ras/NIH 3T3 tumors; assay: Antitumor activity, oncogenic Ras-transformed NIH 3T3 tumors in nude mice; assay type: in vivo; details: 1 mg/kg/day i.p.
Description: Antitumor Activity in the Nude Mouse Tumor Xenograft Model. Nude mice and C57 BL-6 black mice (National Cancer Institute, Bethesda, Md.) were maintained in accordance with the Institutional Animal Care and Use Committee (IACUC) procedures and guidelines. v-Src- and oncogenic H-Ras-transformed NIH 3T3, A549, MDA-MB-468 and Calu-1 cells were harvested, resuspended in PBS and injected s.c. into the right and left flank (10×10^6 cells per flank) of 8 week old female nude mice as reported previously (Sun, J. et al. Cancer Res., 1999, 59:4919-4926). Similarly, murine B16-F10 Melanoma cells were injected s.c. into the right and left flank (10^6 cells per flank) of C57 black mice. When tumors reached about 150 mm^3, animals were randomized (five animals per group; two tumors per animal) and dosed i.p. with 0.2 ml once daily. Control animals received DMSO (20%) vehicle whereas treated animals were injected with JSI-124 (1 mg/kg/day) in 20% DMSO in water. The tumor volumes were determined by measuring the length (l) and the width (w) and calculating the volume (V=1w^2/2) as described previously (Sun, J. et al. Cancer Res., 1999, 59:4919-4926). Statistical significance between control and treated animals were evaluated by using Student's t-test. […] Percent surviving mice was determined by monitoring the death of mice until all mice died. […]

[5] = tested on: STAT3-dependent pLucTKS3 luciferase reporter; assay: STAT3-dependent luciferase reporter assay in v-Src/NIH 3T3 fibroblasts; assay type: cell-based, murine; details: 10 μM, 24-48 hr
Description: as §1, §2, §3

## CC(C)(O)/C=C/C(=O)[C@](C)(O)[C@H]1[C@H](O)C[C@@]2(C)[C@@H]3CC=C4[C@@H](C=C(O)C(=O)C4(C)C)[C@]3(C)C(=O)C[C@]12C [JSI-124, cucurbitacin I]
[1]
  pRLSRE (SRE-dependent) luciferase reporter: without affecting
[2]; 1 mg/kg/day and 0.5 mg/kg/day i.p.
  effects on body weight, activity or food intake of mice: no effects on body weight, activity or food intake
[2]; 1 mg/kg/day i.p.
  edema at the local site of drug injection (peritoneal cavity): caused edema
[3]
  edema at the subcutaneous site of injection (NCI Developmental Therapeutics Program): edema was observed at the subcutaneous site of injection
[4]
  growth of Ras/NIH 3T3 tumors: resistant
[5]
  induction of STAT3-dependent pLucTKS3 luciferase reporter: significantly suppresses
